Data: ChEMBL document CHEMBL1201862, “PubChem BioAssay data set” (2004)
Activity calls are given as the source filed them.

Assays:
[1] = P. falciparum Dd2 growth inhibitors, dose response, SYBR Green, cherry-picked samples (AID 1159567); format: functional, cell-based
[2] = toxicity to human hepatoma HepG2 cells – cell-based, cherry-picked samples, cytotoxicity control, dose response (AID 1159577); format: functional
[3] = intracellular Trypanosoma cruzi inhibitors in host cells – cell-based, plate reader, cherry-pick samples, set 3, dose response (AID 651818); format: functional;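 further: compounds incubated with infected cells for about four days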
[4] = Counterscreen for inhibitors of Trypanosoma brucei methionyl tRNA synthetase (MetRS): Luminescence-based cell-based high throughput dose response assay to identify compounds that are cytotoxic to Jurkat human T lymphocyte cells.; format: functional
[5] = target: 26S proteasome non-ATPase regulatory subunit 14 (Homo sapiens, UniProt O00487); assay: inhibition of proteasome subunit RPN11 – biochemical, fluorescence polarization, uHTS hits, confirmation (AID 602368); format: functional
[6] = target: 72 kDa type IV collagenase (Homo sapiens, UniProt P08253); assay: Dose Response validation of uHTS RPN11 inhibitor hits using a MMP-2 Fluorescence assay.; format: functional
Prothrombin = Prothrombin (Bos taurus, UniProt P00735); assay: thrombin protease inhibitors – biochemical, fluorescence polarization, uHTS hits, dose response (AID 602369); format: functional
[7] = growth inhibition of yeast DHODH-expressing 3D7 parasites – SYBR Green, dry powder samples, dose response (AID 1159570); format: functional, cell-based;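 further: parasite growth measured after 72 hours of compound exposure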
[8] = toxicity to human HepG2 hepatoma cells – cell-based, plate reader, dry powder samples, cytotoxicity control, dose response (AID 1159569); format: functional;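 further: inhibitor potency with signal falling toward the positive control level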
[9] = Dd2 malaria parasite growth inhibition potency – SYBR Green, dry powder samples, dose response (AID 1159566); format: functional, cell-based;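 further: potency for growth inhibition with lower SYBR green DNA signal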
[10] = growth inhibition of PfATP4-mutant resistant parasites – NITD609-resistant line, SYBR Green, dry powder, dose response (AID 1159571); format: functional, cell-based;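 further: parasites synchronized at ring stage by sorbitol before testing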
[11] = target: SWI/SNF-related matrix-associated actin-dependent regulator of chromatin subfamily A member 2 (Homo sapiens, UniProt P51531); assay: Luminescence-based cell-based high throughput dose response assay to identify activators of the function of SWI/SNF related, matrix associated, actin dependent regulator of chromatin, subfamily a, member 2 (SMARCA2, BRM).; format: functional
[12] = Counterscreen for activators of the function of SWI/SNF related, matrix associated, actin dependent regulator of chromatin, subfamily a, member 2 (SMARCA2, BRM): Luminescence-based cell-based high throughput dose response assay to identify non-selective compounds using the VP16 reporter assay.; format: functional
[13] = target: T1, Endoribonuclease toxin MazF (Escherichia coli K-12, UniProt P0AE70); assay: activation of MazEF endoribonuclease cleavage – biochemical, fluorescence, single-stranded RNA substrate, uHTS hits, dose response (AID 588481); format: functional
T1 sequence (P0AE70 whole entry): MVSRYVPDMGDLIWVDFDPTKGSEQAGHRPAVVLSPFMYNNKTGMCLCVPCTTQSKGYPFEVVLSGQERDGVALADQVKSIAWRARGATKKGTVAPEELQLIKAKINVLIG

[14] = target: T1, Endoribonuclease toxin MazF; assay: substrate-only fluorescence increase artefacts – biochemical, single-stranded RNase substrate, counter-screen for MazEF activator project, dose response (AID 588502); format: functional
cells [15] = format: functional, cell-based
[16] = target: T2, Trace amine-associated receptor 1 (Homo sapiens, UniProt Q96RJ0); assay: Fluorescence-based cell-based high throughput dose response assay to identify agonists of the human trace amine associated receptor 1 (TAAR1).; format: functional
T2 sequence (Q96RJ0 whole entry): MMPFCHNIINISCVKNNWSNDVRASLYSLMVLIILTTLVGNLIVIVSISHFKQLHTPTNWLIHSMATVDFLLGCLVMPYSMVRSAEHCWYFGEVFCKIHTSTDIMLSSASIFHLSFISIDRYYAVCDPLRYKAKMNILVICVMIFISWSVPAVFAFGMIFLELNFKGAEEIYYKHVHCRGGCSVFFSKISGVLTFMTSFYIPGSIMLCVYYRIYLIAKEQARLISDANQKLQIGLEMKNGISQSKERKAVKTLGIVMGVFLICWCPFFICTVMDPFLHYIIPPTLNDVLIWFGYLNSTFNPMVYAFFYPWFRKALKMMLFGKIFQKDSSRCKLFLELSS

[17] = target: T2, Trace amine-associated receptor 1; assay: Counterscreen for agonists of the human trace amine associated receptor 1 (hTAAR1): Fluorescence-based cell-based high throughput dose response assay to identify hTAAR1 agonist that also desensitize TAAR1 receptor response.; format: functional
cells [18] = format: functional, cell-based; remark: listed apart in the source
[19] = blockers of HIV-1 envelope-mediated cell-cell fusion – cherry-pick, dose response (AID 652057); format: functional, cell-based
[20] = viability loss in CEM21 cells – cell-based, CellTiter-Glo luminescence, cherry-picked, cytotoxicity control for viral fusion inhibitor project, dose response (AID 652042); format: functional;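 further: potency for signal decrease meaning cytotoxicity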
[21] = off-target signal loss in HeLa-CEM21 co-culture – HeLa F-luc CTL cells, cherry-picked, counter-screen for HIV-1 Env fusion inhibitor project, dose response (AID 652040); format: functional, cell-based;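 further: potency for signal decrease marking cytotoxic or nonspecific inhibition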
[22] = HIV-1 AD8 envelope cell-cell fusion blockers – cherry-pick, dose response (AID 652062); format: functional, cell-based;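 further: luciferase signal from cell-cell fusion driven by HIV-1 clade B AD8 Env; potency is for inhibitors of fusion seen as a drop in luminescence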
[23] = target: Induced myeloid leukemia cell differentiation protein Mcl-1 (Homo sapiens, UniProt Q07820); format: functional
[24] = target: DNA dC->dU-editing enzyme APOBEC-3A (Homo sapiens, UniProt P31941); assay: Dose Response confirmation of small molecule APOBEC3A DNA Deaminase Inhibitors via a fluorescence-based single-stranded DNA deaminase assay. [Related pubchem assays (depositor defined):AID493011, AID493024]; format: functional
[25] = target: DNA dC->dU-editing enzyme APOBEC-3G (Homo sapiens, UniProt Q9HC16); format: functional;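 further: Dose-response counterscreen measuring inhibition of APOBEC3G DNA deaminase activity, run while confirming APOBEC3A inhibitors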
[26] = viability of PTEN-deleted HCT116 cells – cell-based, HCT116 PTEN knockout, dose response (AID 1047); format: functional;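 further: HCT116 colon tumor cells with PTEN knocked out; cells exposed to compound for 60 hours before readout; potency for loss of cell viability measured by luminescence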
[27] = viability of HCT116 lacking mutant beta-catenin – cell-based, human colon tumor, dose response (AID 1045); format: functional;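 further: HCT116 colon tumor cells with beta catenin knocked out; cells exposed to compound for 60 hours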
[28] = target: Heat shock protein HSP 90-alpha (Homo sapiens, UniProt P07900); format: functional, organism-based
[29] = target: T3, Heat shock factor protein 1 (Mus musculus, UniProt P38532); assay: decrease of HSF1-responsive luciferase luminescence – cell-based, NIH3T3, dose retest, confirmation (AID 2382); format: functional;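 further: NIH3T3 fibroblasts with HSF1-driven luciferase reporter stressed by proteasome inhibitor MG132; luminescence from HSF1-driven luciferase expression after 8 hours of MG132 stress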
T3 sequence (P38532 whole entry): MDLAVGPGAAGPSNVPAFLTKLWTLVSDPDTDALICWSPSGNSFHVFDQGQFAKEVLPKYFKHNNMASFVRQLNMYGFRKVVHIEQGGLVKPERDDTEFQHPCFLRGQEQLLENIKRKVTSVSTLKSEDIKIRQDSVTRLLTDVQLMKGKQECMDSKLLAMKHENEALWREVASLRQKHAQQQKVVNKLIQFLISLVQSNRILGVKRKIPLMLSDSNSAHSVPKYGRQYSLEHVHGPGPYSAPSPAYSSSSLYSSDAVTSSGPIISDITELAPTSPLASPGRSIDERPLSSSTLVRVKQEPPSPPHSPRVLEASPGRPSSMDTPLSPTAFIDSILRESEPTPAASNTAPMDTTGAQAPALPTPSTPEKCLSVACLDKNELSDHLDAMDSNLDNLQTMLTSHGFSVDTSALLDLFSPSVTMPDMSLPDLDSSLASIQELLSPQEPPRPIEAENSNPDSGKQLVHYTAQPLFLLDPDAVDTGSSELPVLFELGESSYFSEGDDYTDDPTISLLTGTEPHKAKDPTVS

[30] = target: T4, DNA repair protein RAD52 homolog (Homo sapiens, UniProt P43351); format: functional, biochemical
T4 sequence (P43351 whole entry): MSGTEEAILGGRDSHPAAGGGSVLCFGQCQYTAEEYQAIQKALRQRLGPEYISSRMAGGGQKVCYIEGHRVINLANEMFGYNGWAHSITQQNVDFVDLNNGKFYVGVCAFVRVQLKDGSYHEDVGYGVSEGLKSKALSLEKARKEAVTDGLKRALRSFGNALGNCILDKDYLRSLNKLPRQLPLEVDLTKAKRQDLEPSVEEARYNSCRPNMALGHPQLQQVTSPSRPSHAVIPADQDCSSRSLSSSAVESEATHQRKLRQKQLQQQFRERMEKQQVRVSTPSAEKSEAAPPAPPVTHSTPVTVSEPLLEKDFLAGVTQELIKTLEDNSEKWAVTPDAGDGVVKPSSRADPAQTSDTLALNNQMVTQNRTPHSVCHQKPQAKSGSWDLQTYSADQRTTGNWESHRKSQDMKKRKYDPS

Sequence of DNA dC->dU-editing enzyme APOBEC-3G (Q9HC16 whole entry): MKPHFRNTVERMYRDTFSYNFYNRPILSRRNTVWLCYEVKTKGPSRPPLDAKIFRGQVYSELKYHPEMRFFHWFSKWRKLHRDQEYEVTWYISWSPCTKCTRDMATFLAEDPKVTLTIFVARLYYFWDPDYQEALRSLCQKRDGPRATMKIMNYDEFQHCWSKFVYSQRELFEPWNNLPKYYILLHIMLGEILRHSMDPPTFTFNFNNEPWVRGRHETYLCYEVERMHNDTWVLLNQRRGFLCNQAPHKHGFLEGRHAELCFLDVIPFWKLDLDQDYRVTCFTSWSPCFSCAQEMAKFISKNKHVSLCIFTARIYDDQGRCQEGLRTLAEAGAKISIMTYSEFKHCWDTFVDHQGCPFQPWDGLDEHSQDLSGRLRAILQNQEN
Sequence of DNA dC->dU-editing enzyme APOBEC-3A (P31941 whole entry): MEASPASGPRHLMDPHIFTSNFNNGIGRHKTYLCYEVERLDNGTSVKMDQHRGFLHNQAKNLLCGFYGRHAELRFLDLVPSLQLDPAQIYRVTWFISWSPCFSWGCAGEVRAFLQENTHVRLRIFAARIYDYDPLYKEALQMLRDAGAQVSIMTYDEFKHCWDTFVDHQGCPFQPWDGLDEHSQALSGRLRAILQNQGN
Sequence of 26S proteasome non-ATPase regulatory subunit 14 (O00487 whole entry): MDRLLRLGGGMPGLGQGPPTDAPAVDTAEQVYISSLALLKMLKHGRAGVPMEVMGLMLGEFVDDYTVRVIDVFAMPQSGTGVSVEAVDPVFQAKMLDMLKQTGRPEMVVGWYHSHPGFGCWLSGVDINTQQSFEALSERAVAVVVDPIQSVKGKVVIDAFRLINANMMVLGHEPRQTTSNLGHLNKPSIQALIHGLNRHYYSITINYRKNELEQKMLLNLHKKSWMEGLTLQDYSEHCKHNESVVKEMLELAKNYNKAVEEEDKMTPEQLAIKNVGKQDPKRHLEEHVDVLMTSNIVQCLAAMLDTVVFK
Sequence of 72 kDa type IV collagenase (P08253 whole entry): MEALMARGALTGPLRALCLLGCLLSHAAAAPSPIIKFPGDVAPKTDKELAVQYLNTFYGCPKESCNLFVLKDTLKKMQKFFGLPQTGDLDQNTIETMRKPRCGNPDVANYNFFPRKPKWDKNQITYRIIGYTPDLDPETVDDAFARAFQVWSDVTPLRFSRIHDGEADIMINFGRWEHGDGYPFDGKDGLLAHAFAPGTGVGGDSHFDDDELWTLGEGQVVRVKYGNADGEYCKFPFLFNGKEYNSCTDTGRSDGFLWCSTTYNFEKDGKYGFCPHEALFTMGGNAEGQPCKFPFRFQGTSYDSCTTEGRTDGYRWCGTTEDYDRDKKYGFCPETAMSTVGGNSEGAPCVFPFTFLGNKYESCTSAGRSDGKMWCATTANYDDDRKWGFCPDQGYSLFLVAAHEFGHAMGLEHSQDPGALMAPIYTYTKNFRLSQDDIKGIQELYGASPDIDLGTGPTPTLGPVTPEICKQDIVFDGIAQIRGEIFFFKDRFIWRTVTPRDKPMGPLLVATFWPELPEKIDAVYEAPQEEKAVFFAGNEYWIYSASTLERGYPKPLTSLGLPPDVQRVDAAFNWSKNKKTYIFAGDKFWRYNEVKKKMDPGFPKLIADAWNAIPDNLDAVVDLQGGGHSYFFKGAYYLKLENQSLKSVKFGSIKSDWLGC
Sequence of Induced myeloid leukemia cell differentiation protein Mcl-1 (Q07820 whole entry): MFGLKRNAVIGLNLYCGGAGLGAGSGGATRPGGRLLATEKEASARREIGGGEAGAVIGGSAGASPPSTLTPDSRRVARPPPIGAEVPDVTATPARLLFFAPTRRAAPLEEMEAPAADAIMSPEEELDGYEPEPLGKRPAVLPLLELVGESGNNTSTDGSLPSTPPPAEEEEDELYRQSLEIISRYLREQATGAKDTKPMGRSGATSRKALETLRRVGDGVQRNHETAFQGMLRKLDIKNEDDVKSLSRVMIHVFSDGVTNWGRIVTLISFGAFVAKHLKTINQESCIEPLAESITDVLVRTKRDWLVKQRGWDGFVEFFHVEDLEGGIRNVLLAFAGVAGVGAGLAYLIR
Sequence of SWI/SNF-related matrix-associated actin-dependent regulator of chromatin subfamily A member 2 (P51531 whole entry): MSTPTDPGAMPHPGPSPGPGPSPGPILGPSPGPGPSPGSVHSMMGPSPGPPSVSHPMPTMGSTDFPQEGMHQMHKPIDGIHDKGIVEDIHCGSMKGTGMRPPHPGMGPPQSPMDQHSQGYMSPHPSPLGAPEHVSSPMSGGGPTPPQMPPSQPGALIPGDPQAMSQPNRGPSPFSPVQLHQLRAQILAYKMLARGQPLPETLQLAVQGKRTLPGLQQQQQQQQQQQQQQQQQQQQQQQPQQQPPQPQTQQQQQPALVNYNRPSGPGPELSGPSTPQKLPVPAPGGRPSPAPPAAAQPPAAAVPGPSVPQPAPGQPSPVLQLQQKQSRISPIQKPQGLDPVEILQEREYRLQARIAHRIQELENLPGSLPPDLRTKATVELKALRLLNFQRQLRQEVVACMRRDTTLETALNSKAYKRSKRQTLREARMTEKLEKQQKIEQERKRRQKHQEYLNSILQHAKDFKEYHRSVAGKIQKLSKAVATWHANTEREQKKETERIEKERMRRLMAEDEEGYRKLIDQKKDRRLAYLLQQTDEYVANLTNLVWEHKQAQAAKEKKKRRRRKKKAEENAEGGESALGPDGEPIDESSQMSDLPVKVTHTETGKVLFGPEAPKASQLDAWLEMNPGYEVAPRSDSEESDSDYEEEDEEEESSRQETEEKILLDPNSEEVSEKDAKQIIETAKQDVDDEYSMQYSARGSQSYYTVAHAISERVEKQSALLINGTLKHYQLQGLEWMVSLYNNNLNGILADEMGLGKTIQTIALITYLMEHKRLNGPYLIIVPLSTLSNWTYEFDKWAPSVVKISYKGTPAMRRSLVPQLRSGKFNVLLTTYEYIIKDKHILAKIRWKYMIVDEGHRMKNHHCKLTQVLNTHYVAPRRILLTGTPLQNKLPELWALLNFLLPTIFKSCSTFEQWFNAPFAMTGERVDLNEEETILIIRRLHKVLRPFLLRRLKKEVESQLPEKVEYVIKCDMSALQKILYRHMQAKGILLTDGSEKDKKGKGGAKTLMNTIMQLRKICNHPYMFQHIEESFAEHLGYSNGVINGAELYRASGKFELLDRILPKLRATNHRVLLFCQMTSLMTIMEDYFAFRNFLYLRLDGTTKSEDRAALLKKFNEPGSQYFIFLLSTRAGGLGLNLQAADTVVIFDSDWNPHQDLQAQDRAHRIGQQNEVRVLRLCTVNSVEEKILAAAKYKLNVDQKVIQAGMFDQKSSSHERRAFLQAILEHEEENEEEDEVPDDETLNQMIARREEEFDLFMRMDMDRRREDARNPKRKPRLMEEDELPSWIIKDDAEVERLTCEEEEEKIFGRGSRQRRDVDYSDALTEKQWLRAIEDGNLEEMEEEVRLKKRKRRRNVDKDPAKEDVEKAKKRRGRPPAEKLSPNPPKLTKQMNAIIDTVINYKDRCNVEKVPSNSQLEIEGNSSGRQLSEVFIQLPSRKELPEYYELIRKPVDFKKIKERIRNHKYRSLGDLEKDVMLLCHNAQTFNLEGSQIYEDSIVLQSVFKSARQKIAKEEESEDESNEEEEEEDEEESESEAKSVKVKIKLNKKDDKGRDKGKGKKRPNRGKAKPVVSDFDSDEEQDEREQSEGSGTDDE

Cc1ccc(-c2ccc([C@H]3[C@@H](CO)N4CCCCN(S(=O)(=O)c5cccc(C)c5)C[C@H]34)cc2)cc1
AC50 [1]: 1.31 µM (active)
AC50 [2]: 9.89 µM (active)

C[C@H]1CN([C@@H](C)CO)C(=O)c2cc(NC(=O)Nc3ccc(C(F)(F)F)cc3)ccc2O[C@@H]1CN(C)Cc1ccc(C(F)(F)F)cc1
AC50 [3]: 3.35 µM (active)

Cc1ccc(C(=O)NN2C(=O)/C(=C/c3nc4ccccc4[nH]3)SC2=S)cc1
IC50 [4]: 36.7 µM (inactive)

N#Cc1c(-c2ccco2)cc(-c2ccc(F)cc2)nc1N
IC50 [5]: 15.8 µM (active)
IC50 [6]: > 100 µM (inactive)
IC50 (Prothrombin): 20.9 µM (active)

COc1ccc2c3c([nH]c2c1)[C@@H](CO)N(Cc1ccncc1)CC31CCN(Cc2ccc(-c3ccccn3)cc2)CC1
AC50 [7]: 0.649 µM (active)
AC50 [8]: 21.2 µM (active)
AC50 [1]: 0.546 µM (active)
AC50 [9]: 0.613 µM (active)
AC50 [2]: > 39 µM (inactive)
AC50 [10]: 0.623 µM (active)

O=C1CNC(=S)N1c1nc2ccccc2s1
EC50 [11]: > 91.2 µM (inactive)
EC50 [12]: > 91.2 µM (inactive)

COc1cccc(-n2c(SCC(N)=O)nc3ccccc3c2=O)c1
IC50 [5]: 55.9 µM (active)
IC50 [6]: > 100 µM (inactive)
IC50 (Prothrombin): 58.2 µM (active)

C/C(=N\NS(=O)(=O)c1ccc([N+](=O)[O-])cc1)c1c[nH]c2ccccc12
EC50 [13]: 14.9 µM (active)
EC50 [14]: > 99 µM (inactive)

N=C(N)N/N=C/c1c(Cl)cccc1Cl [GUANABENZ]
IC50 (cells [15]): > 29.9 µM (inactive)
EC50 [16]: > 3.33 µM (active)
IC50 [17]: 1.17 µM (active)
EC50 (cells [18]): > 29.9 µM (inactive)

C[C@H]1CN([C@@H](C)CO)C(=O)c2cccc(NC(=O)CCCCCC(=O)Nc3ccccc3N)c2O[C@H]1CN(C)Cc1ccc(C(F)(F)F)cc1
AC50 [3]: 3.96 µM (active)

OCCNc1nc(Nc2cccc(O)c2)nc2ccccc12
IC50 (cells [15]): > 29.9 µM (inactive)
EC50 [16]: 0.0786 µM (active)
IC50 [17]: 0.261 µM (active)
EC50 (cells [18]): > 29.9 µM (inactive)

Cc1ccc(C)c(CNc2ccc(S(=O)(=O)N3CCCCC3)cc2)c1
AC50 [19]: 50.5 µM (active)
AC50 [20]: 63.8 µM (active)
AC50 [21]: < 0.26 µM (active)
AC50 [22]: 2.31 µM (active)

Cc1ccccc1S(=O)(=O)N1[C@H](C#N)[C@@H](c2ccc(C#CC3CCCCC3)cc2)[C@@H]1CO
AC50 [1]: 6.83 µM (active)
AC50 [2]: > 39 µM (inactive)

O=C1SC(SCc2ccccc2Cl)=N/C1=C\c1ccc(C(=O)O)cc1
IC50 [23]: 5.02 µM (active)

C[N+]1(C)[C@@H]2CC[C@H]1C[C@@H](OC(=O)C(CO)c1ccccc1)C2 (stereo not given in full)
IC50 [24]: 2.23 µM (active)
IC50 [25]: 3.18 µM (active)

CCC1C/C(=C\c2cccnc2)C(=O)/C(=C/c2cccnc2)C1 (stereo not given)
EC50 [26]: 1.01 µM (active)
EC50 [27]: 0.836 µM (active)
AC50 [28]: 12.7 µM (active)

NC(=O)c1c(NC(=O)C2COc3ccccc3O2)sc2c1CCN(Cc1ccccc1)C2 (stereo not given)
EC50 [29]: > 195 µM (not active)
EC50 [13]: 12.1 µM (active)
EC50 [14]: 85.1 µM (inactive)

O=C(c1ccc(Cn2c(=S)[nH]c3ccc(N4CCOCC4)cc3c2=O)cc1)N1CCC(N2CCCCC2)CC1
AC50 [30]: 13.9 µM (active)

O=C(C1CCN(C2CC(=O)N(c3cccc(Cl)c3)C2=O)CC1)N1CCCC1 (stereo not given)
AC50 [28]: 4.21 µM (active)

C[C@H]1CN([C@@H](C)CO)C(=O)c2cccc(NC(=O)Nc3ccc(C(F)(F)F)cc3)c2O[C@H]1CN(C)Cc1ccc2c(c1)OCO2
AC50 [3]: 1.77 µM (active)

CCC(=O)N1[C@H](CO)[C@H](c2ccc(C3=CCCCC3)cc2)[C@H]1CNC1CCCC1
AC50 [1]: 4.7 µM (active)
AC50 [2]: > 42 µM (inactive)

C[C@@H]1CN([C@@H](C)CO)C(=O)c2cccc(NC(=O)Nc3ccc(F)cc3)c2O[C@@H]1CN(C)Cc1ccc(-c2ccccc2)cc1
AC50 [3]: 3.67 µM (active)

C=CCn1c(NC(=O)c2ccc(C)cc2)c(C#N)sc1=N
IC50 [24]: 3.47 µM (active)
IC50 [25]: 4.44 µM (active)

CCn1c(SCC(=O)N2CCN(c3ccc(Cl)cc3)CC2)nc2ccccc2c1=O
IC50 [24]: 2.83 µM (active)
IC50 [25]: 2.57 µM (active)

CCOC(=O)[C@]12CCCC=C1N(Cc1ccc3c(c1)OCO3)C(=O)[C@H](CC(=O)NCCc1ccccc1OC)C2
IC50 (cells [15]): > 29.9 µM (inactive)
EC50 [16]: 4.06 µM (active)
IC50 [17]: 5.85 µM (active)
EC50 (cells [18]): > 29.9 µM (inactive)

COc1cc2[nH]c(=O)n(Cc3ccc(C(=O)NC4CCCC4)cc3)c(=O)c2cc1OC
EC50 [13]: > 99 µM (inactive)
EC50 [14]: > 99 µM (inactive)
